# From article PMC11513924, “Addressing the Intracellular Vestibule of the Plasmodial Lactate Transporter PfFNT by p-Substituted Inhibitors Amplifies In Vitro Activity” (Journal of Medicinal Chemistry, 2024)
# Columns and labels:
# PfFNT [1] = biological target: T1, PfFNT (Plasmodium falciparum, UniProt O77389); assay: Fluorescence cross-correlation spectroscopy (FCCS) competition binding to solubilized PfFNT-GFP; conditions: competition against BH267.meta-DY647 tracer, Cheng Prusoff; read-out: Ki (FCCS, protein)
# T1 construct: expressed in transfected cells; membranes solubilized
# T1 sequence (O77389 1-309): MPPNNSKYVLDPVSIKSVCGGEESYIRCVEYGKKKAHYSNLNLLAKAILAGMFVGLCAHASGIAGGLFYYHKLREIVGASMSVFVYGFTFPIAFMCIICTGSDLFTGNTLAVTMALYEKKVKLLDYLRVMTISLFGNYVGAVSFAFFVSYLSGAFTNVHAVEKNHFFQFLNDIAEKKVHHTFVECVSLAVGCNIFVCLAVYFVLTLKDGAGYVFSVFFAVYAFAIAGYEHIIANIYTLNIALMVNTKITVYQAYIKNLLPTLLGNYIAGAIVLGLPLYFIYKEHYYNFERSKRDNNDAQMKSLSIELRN
# Experimental: FCCS measurements were conducted and analyzed as before.[20],[30] Briefly, membranes of stably transfected cells expressing PfFNT with a C-terminal GFP (green) were solubilized. BH267.meta 2 fused with DY647 (red) was used as a tracer to monitor the binding of compounds in a competition assay. Assays were done in […] glass bottom plates (cat. no. PS96B-G175, SWISSCI, Switzerland) using a plate reader (Insight, Evotec Technologies, Germany) fitted with a U-Apo300 40× water immersion lens, NA 1.15 (Olympus, Japan). Excitation was done with an argon-ion laser (488 nm) and a helium–neon laser (633 nm). Fluorescence fluctuations were recorded 10 times for 5 s per sample and fitted using FCS+ plus Analyze (PerkinElmer software). Initially, IC50 values were determined from the concentration of the dual labeled complex titrated against a competitor in a range of 100 pM to 100 μM (Figure S1). Then, Ki values were calculated using the Cheng Prusoff equation[31] based on the previously determined KD value for the BH267.meta-DY647 tracer.[20]
# [2] = system: Plasmodium falciparum 3D7 parasites; assay: P. falciparum 3D7 culture growth assay in erythrocytes (in vitro activity); assay type: cell-based; conditions: 50 nM compound
# Experimental: The parasitemia was measured using an LSR II FACS (BD Biosciences) as described.[34],[35] Growth was assessed as % of untreated control. EC50 curves were plotted using Graph Pad Prism.
# Transport assays in yeast were done in triplicate biological replicates. At least nine technical replicates were measured around the IC50 value, concentrations with no or full inhibition were determined from at least three technical replicates. […] IC50 and EC50 curves were fitted by the Hill equation with variable slope (Graph Pad Prism 10). Error bars denote ± SEM (for n ≥ 3) or ± range (for n = 2). […] Cytotoxicity was determined from biological triplicates; error is shown as SEM.
# PfFNT [3] = biological target: T1, PfFNT; conditions: 14C-lactate transport, PfFNT wild type; ref Golldack[4] et al. 2017; read-out: IC50 (transport, yeast); cited from earlier work
# [4] = system: Plasmodium falciparum 3D7 parasites; conditions: ref Golldack[4] et al. 2017; read-out: EC50 (in vitro, 3D7); cited from earlier work
substance,measurement,setting,value
"MMV007839 [compound 1, reference compound]",Ki,PfFNT [1],0.083 ± 0.033 µM
same,"% Growth at 50 nM (in vitro, 3D7)",[2]; % of untreated control,> 90%
same,"inhibitory activity at 50 nM (in vitro, 3D7)",[2]; 100 minus % growth,< 10%
same,IC50,PfFNT [3],0.17 ± 0.01 µM
same,EC50,[4],0.14 ± 0.01 µM
